Assay results reported in patent publication US20100076015A1, “Aminopyridine Derivatives” (VANTIA LIMITED, priority 2008, published 2010).
pIC50: −log10 of the molar value.

Each molecule was assayed against T1, Human KLK1 (Homo sapiens, UniProt P06870) (assay: Determination of the IC50 for KLK1 (fluorogenic substrate H-DVal-Leu-Arg-AFC)). Conditions: 37° C.
T1 construct: purchased Callbiochem (Calbiochem)
T1 sequence (P06870 25-262): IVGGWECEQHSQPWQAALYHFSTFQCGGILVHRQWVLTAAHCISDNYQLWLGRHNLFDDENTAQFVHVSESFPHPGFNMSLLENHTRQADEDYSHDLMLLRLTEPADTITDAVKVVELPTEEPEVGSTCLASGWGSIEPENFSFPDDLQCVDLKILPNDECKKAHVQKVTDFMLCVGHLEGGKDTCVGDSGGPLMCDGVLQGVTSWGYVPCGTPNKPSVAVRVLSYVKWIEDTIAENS
Assay type: biochemical
Method: Determination of the IC50 for KLK1
KLK1 inhibitory activity in vitro was determined using standard published methods (see e.g. Johansen et al., Int. J. Tiss. Reac. 1986, 8, 185; Shori et al., Biochem. Pharmacol., 1992, 43, 1209; Stürzebecher et al., Biol. Chem. Hoppe-Seyler, 1992, 373, 1025). Human KLK1 (Callbiochem) was incubated at 37° C. with the fluorogenic substrate H-DVal-Leu-Arg-AFC and various concentrations of the test compound. Residual enzyme activity (initial rate of reaction) was determined by measuring the change in optical absorbance at 410 nm and the IC50 value for the test compound was determined.
For Cc1cc(C)c(C(=O)N[C@@H](Cc2cccc(F)c2)C(=O)NCc2ccc(N)nc2)[nH]1 [Example 236, 3,5-Dimethyl-1H-pyrrole-2-carboxylic acid [(S)-1-[(6-amino-pyridin-3-ylmethyl)-carbamoyl]-2-(3-fluoro-phenyl)-ethyl]-amide], the pIC50 was 8.05.
In the case of Nc1ccc(CNC(=O)[C@H](Cc2cccc3ccccc23)NC(=O)[C@H]2CCCCN2)cn1 [Example 75, (R)-Piperidine-2-carboxylic acid {(S)-1-[(6-amino-pyridin-3-ylmethyl)-carbamoyl]-2-naphthalen-1-ylethyl}-amide], the pIC50 was 8.66.
With Nc1ccc(CNC(=O)[C@H](Cc2ccc(F)cc2)NC(=O)c2cc3ccccc3[nH]2)cn1 [Example 330, 1H-Indole-2-carboxylic acid [(S)-1-[(6-amino-pyridin-3-ylmethyl)-carbamoyl]-2-(4-fluoro-phenyl)-ethyl]-amide] the pIC50 was 7.63.
Work on Cc1cc[nH]c1C(=O)N[C@@H](Cc1ccccc1Cl)C(=O)NCc1ccc(N)nc1 [Example 262, 3-Methyl-1H-pyrrole-2-carboxylic acid [(S)-1-[(6-amino-pyridin-3-ylmethyl)-carbamoyl]-2-(2-chloro-phenyl)-ethyl]-amide] yielded a pIC50 of 7.55.
Work on Nc1ccc(CNC(=O)[C@H](Cc2ccc(Cl)c(Cl)c2)NC(=O)[C@H]2CSCN2)cn1 [Example 56, (S)-Thiazolidine-4-carboxylic acid [(S)-1-[(6-amino-pyridin-3-ylmethyl)-carbamoyl]-2-(3,4-dichloro-phenyl)-ethyl]-amide] yielded a pIC50 of 8.15.
For C[C@H](C(=O)N[C@@H](Cc1ccc(C(F)(F)F)cc1)C(=O)NCc1ccc(N)nc1)N1CCCCC1 [Example 421, (R)—N-[(S)-1-[(6-Amino-pyridin-3-ylmethyl)-carbamoyl]-2-(4-trifluoromethyl-phenyl)-ethyl]-2-piperidin-1-yl-propionamide], the pIC50 was 7.17.
CCC(C)[C@@H](N)C(=O)N[C@@H](Cc1ccccc1Cl)C(=O)NCc1ccc(N)nc1 (stereo partly drawn) [Example 24, (R)-2-Amino-3-methyl-pentanoic acid [(S)-1-[(6-amino-pyridin-3-ylmethyl)-carbamoyl]-2-(2-chloro-phenyl)-ethyl]-amide] was tested, and the pIC50 was 7.56.
For Cc1ccc(C[C@H](NC(=O)c2[nH]c(C)cc2C)C(=O)NCc2ccc(N)nc2)cc1 [Example 253, 3,5-Dimethyl-1H-pyrrole-2-carboxylic acid {(S)-1-[(6-amino-pyridin-3-ylmethyl)-carbamoyl]-2-p-tolyl-ethyl}-amide], the pIC50 was 7.90.
For Cc1cc[nH]c1C(=O)N[C@@H](Cc1ccccc1F)C(=O)NCc1ccc(N)nc1 [Example 265, 3-Methyl-1H-pyrrole-2-carboxylic acid [(S)-1-[(6-amino-pyridin-3-ylmethyl)-carbamoyl]-2-(2-fluoro-phenyl)-ethyl]-amide], the pIC50 was 7.67.
Nc1ccc(CNC(=O)[C@H](Cc2cccc(F)c2)NC(=O)c2ncc[nH]2)cn1 [Example 288, 1H-Imidazole-2-carboxylic acid [(S)-1-[(6-amino-pyridin-3-ylmethyl)-carbamoyl]-2-(3-fluoro-phenyl)-ethyl]-amide] showed a pIC50 of 7.03.
CCC(C)[C@H](C(=O)N[C@@H](Cc1cccc(F)c1)C(=O)NCc1ccc(N)nc1)N(C)C (stereo partly drawn) [Example 377, (R)-2-Dimethylamino-3-methyl-pentanoic acid [(S)-1-[(6-amino-pyridin-3-ylmethyl)-carbamoyl]-2-(3-fluoro-phenyl)-ethyl]-amide] was tested, and the pIC50 was 7.49.
CC(C)N(C)[C@@H](Cc1ccccc1)C(=O)N[C@@H](Cc1ccc(F)cc1)C(=O)NCc1ccc(N)nc1 [Example 373, (S)—N-[(S)-1-[(6-Amino-pyridin-3-ylmethyl)-carbamoyl]-2-(4-fluoro-phenyl)-ethyl]-2-(isopropyl-methyl-amino)-3-phenyl-propionamide] gave a pIC50 of 7.59.
For Cc1cc(C)c(C(=O)N[C@@H](Cc2csc3ccccc23)C(=O)NCc2ccc(N)nc2)[nH]1 [Example 250, 3,5-Dimethyl-1H-pyrrole-2-carboxylic acid {(S)-1-[(6-amino-pyridin-3-ylmethyl)-carbamoyl]-2-benzo[b]thiophen-3-yl-ethyl}-amide], the pIC50 was 9.10.
Work on Cc1ccc(-c2ccc(C(=O)N[C@@H](Cc3ccc(F)c(F)c3)C(=O)NCc3ccc(N)nc3)[nH]2)cc1 [Example 294, 5-p-Tolyl-1H-pyrrole-2-carboxylic acid [(S)-1-[(6-amino-pyridin-3-ylmethyl)-carbamoyl]-2-(3,4-difluoro-phenyl)-ethyl]-amide] yielded a pIC50 of 7.45.
Cc1cc(C)c(C(=O)N[C@@H](Cc2ccc(Cl)cc2)C(=O)NCc2ccc(N)nc2)[nH]1 [Example 246, 3,5-Dimethyl-1H-pyrrole-2-carboxylic acid [(S)-1-[(6-amino-pyridin-3-ylmethyl)-carbamoyl]-2-(4-chloro-phenyl)-ethyl]-amide] was tested, and the pIC50 was 8.46.
CN(C)CC(=O)N[C@@H](C(=O)NCc1ccc(N)nc1)C(C1CCCCC1)C1CCCCC1 [Example 222, (R)—N-(6-Amino-pyridin-3-ylmethyl)-3,3-dicyclohexyl-2-(2-dimethylamino-acetylamino)-propionamide] showed a pIC50 of 7.40.
Work on Cn1ccnc1C(=O)N[C@@H](Cc1ccc(F)cc1)C(=O)NCc1ccc(N)nc1 [Example 290, 1-Methyl-1H-imidazole-2-carboxylic acid [(S)-1-[(6-amino-pyridin-3-ylmethyl)-carbamoyl]-2-(4-fluoro-phenyl)-ethyl]-amide] yielded a pIC50 of 6.20.
CN(C)CC(=O)N[C@@H](Cc1ccc(Cl)c(Cl)c1)C(=O)NCc1ccc(N)nc1 [Example 153, (S)—N-(6-Amino-pyridin-3-ylmethyl)-3-(3,4-dichloro-phenyl)-2-(2-dimethylamino-acetylamino)-propionamide] gave a pIC50 of 7.16.
Molecule CN[C@H](C)C(=O)N[C@@H](Cc1ccc(F)c(F)c1)C(=O)NCc1ccc(N)nc1 [Example 84, (R)—N-[(S)-1-[(6-Amino-pyridin-3-ylmethyl)-carbamoyl]-2-(3,4-difluoro-phenyl)-ethyl]-2-methylamino-propionamide] has a pIC50 of 8.10.
Work on CCC(C)[C@@H](NC)C(=O)N[C@@H](CC1CCCCC1)C(=O)NCc1ccc(N)nc1 (stereo partly drawn) [Example 21, (R)-3-Methyl-2-methylamino-pentanoic acid {(S)-1-[(6-amino-pyridin-3-ylmethyl)-carbamoyl]-2-cyclohexyl-ethyl}-amide] yielded a pIC50 of 7.64.
“(R)—N-[(S)-1-[(6-Amino-pyridin-3-ylmethyl)-carbamoyl]-2-(3,4-dichloro-phenyl)-ethyl]-3-methyl-2-methylamino-butyramide [Example 340]” showed a pIC50 of 9.42.
Molecule Cc1cc(C)c(C(=O)N[C@@H](Cc2ccc3ccccc3n2)C(=O)NCc2ccc(N)nc2)[nH]1 [Example 257, 3,5-Dimethyl-1H-pyrrole-2-carboxylic acid {(S)-1-[(6-amino-pyridin-3-ylmethyl)-carbamoyl]-2-quinolin-2-yl-ethyl}-amide] has a pIC50 of 7.92.
With CC(C(=O)N[C@@H](Cc1cccc(C(F)(F)F)c1)C(=O)NCc1ccc(N)nc1)N1CCCCC1 (stereo partly drawn) [Example 419, N-[(S)-1-[(6-Amino-pyridin-3-ylmethyl)-carbamoyl]-2-(3-trifluoromethyl-phenyl)-ethyl]-2-piperidin-1-yl-propionamide] the pIC50 was 7.79.
Molecule CC(C)CN1CCC[C@@H]1C(=O)N[C@@H](Cc1ccc(F)c(F)c1)C(=O)NCc1ccc(N)nc1 [Example 133, (R)-1-Isobutyl-pyrrolidine-2-carboxylic acid [(S)-1-[(6-amino-pyridin-3-ylmethyl)-carbamoyl]-2-(3,4-difluoro-phenyl)-ethyl]-amide] has a pIC50 of 7.78.
CCC(C)[C@@H](C(=O)N[C@@H](Cc1ccc(F)cc1)C(=O)NCc1ccc(N)nc1)N(C)C(C)C (stereo partly drawn) [Example 371, (S)-2-(Isopropyl-methyl-amino)-3-methyl-pentanoic acid [(S)-1-[(6-amino-pyridin-3-ylmethyl)-carbamoyl]-2-(4-fluoro-phenyl)-ethyl]-amide] gave a pIC50 of 8.14.
Work on CN1CCC[C@H]1C(=O)N[C@@H](Cc1ccc(F)c(F)c1)C(=O)NCc1ccc(N)nc1 [Example 116, (S)-1-Methyl-pyrrolidine-2-carboxylic acid [(S)-1-[(6-amino-pyridin-3-ylmethyl)-carbamoyl]-2-(3,4-difluoro-phenyl)-ethyl]-amide] yielded a pIC50 of 7.79.
Cc1nc(N)ccc1CNC(=O)[C@H](Cc1cccc2ccccc12)NC(=O)[C@H]1CCCN1C [Example 9, (R)-1-Methyl-pyrrolidine-2-carboxylic acid [(S)-1-[(6-amino-2-methyl-pyridin-3-ylmethyl)-carbamoyl]-2-naphthalen-1-yl-ethyl]-amide] was tested, and the pIC50 was 8.20.
CC(C)[C@@H](C(=O)N[C@@H](Cc1ccc(F)cc1)C(=O)NCc1ccc(N)nc1)N(C)C(C)C [Example 370, (S)—N-[(S)-1-[(6-Amino-pyridin-3-ylmethyl)-carbamoyl]-2-(4-fluoro-phenyl)-ethyl]-2-(isopropyl-methyl-amino)-3-methyl-butyramide] was tested, and the pIC50 was 7.95.
In the case of CN1CCC[C@@H]1C(=O)N(C)[C@@H](Cc1ccccc1)C(=O)NCc1ccc(N)nc1 [Example 225, (R)-1-Methyl-pyrrolidine-2-carboxylic acid {(S)-1-[(6-amino-pyridin-3-ylmethyl)-carbamoyl]-2-phenyl-ethyl}-methyl-amide], the pIC50 was 7.29.
Cc1cc[nH]c1C(=O)N[C@@H](Cc1ccc(Cl)cc1)C(=O)NCc1ccc(N)nc1 [Example 267, 3-Methyl-1H-pyrrole-2-carboxylic acid [(S)-1-[(6-amino-pyridin-3-ylmethyl)-carbamoyl]-2-(4-chloro-phenyl)-ethyl]-amide] was tested, and the pIC50 was 8.09.
Work on CCC(C)[C@@H](N)C(=O)N[C@@H](Cc1cccc(C#N)c1)C(=O)NCc1ccc(N)nc1 (stereo partly drawn) [Example 31, (R)-2-Amino-3-methyl-pentanoic acid [(S)-1-[(6-amino-pyridin-3-ylmethyl)-carbamoyl]-2-(3-cyano-phenyl)-ethyl]-amide] yielded a pIC50 of 7.74.
